Measured values as given in patent publication US20110104144A1, “METHODS FOR TREATING CUTANEOUS LUPUS USING AMINOISOINDOLINE COMPOUNDS” (CELGENE CORPORATION, priority 2005, published 2011).

Key:
TNF-α = assay: Ultraviolet B-induced TNF-alpha production by human keratinocytes (HEKn cells), TNF-α ELISA; format: cell-based
Protocol: Cutaneous lupus patients often experience disease exacerbation when exposed to ultraviolet (UV) light. This is thought to be due to UVB-induced TNF-α production by keratinocytes. […] In vitro study for cutaneous lupus was performed to investigate how the compounds of the invention affect TNF-α production in keratinocytes.
Human neonatal foreskin epidermal keratinocytes (HEKn cells) were obtained from Cascade Biologics and were grown in serum-free medium supplemented with growth factors. When cells reached 80% confluency, they were trypsinized and plated at 1×10^5 cells/well in 6 well dishes. Plates were incubated for 24 hours to allow cell adhesion. To optimize conditions for the release of TNF-α, cells were treated with various degrees of exposure to UVB radiation (1, 4 and 24 hours). Supernatants were then collected and tested in the TNF-α ELISA.
Supernatants were collected and tested in the TNF-α ELISA at 1 Hour (bars with no pattern), 4 Hours (lined bars), or 24 Hours (checkered bars) after exposure. Results are the average of two experiments. The results shown in FIG. 7 indicate that supernatants collected 24 hours after HEKn cells were exposed to UVB had the highest levels of TNF-α. After exposure to 10, 50, or 100 mJ/cm^2, cells remained attached to the wells and no cell damage was observed. The 300 mJ/cm^2 UVB exposure was too high for the HEKn cells and many cells were damaged and detached from the bottom of the wells.
Cells were treated for 4 hours with (+)-2-[1-(3-ethoxy-4-methoxyphenyl)-2-methylsulfonylethyl]-4-acetylaminoisoindoline-1,3-dione (compound named 10004), or cyclopropyl {2-[(1S)-1-(3-ethoxy-4-methoxyphenyl)-2-(methylsulfonyl)ethyl]-3-oxoisoindolin-4-yl}carboxamide (compound named 11050) at 0.1 μM, 1 μM, or 10 μM. Medium was aspirated the cells washed and then exposed to 50 mJ/cm^2 UVB radiation. Fresh medium was added and the cells were incubated for 24 hours. Supernatents were removed and tested in the TNF-α ELISA kit from Pierce Biotechnology. […] (FIG. 8). […] (FIG. 8).
In other experiments, cells were treated for 4 hours with 3-(4-amino-1-oxo-1,3-dihydro-isoindol-2-yl)-piperidine-2,6-dione (compound named 5013), (+)-2-[1-(3-ethoxy-4-methoxyphenyl)-2-methylsulfonylethyl]-4-acetylaminoisoindoline-1,3-dione (compound named 10004) or compound named 16057, at 0.1 μM or 1 μM. […] (FIG. 9). […] (FIG. 9).

E-Selectin = assay: HUVEC cell surface expression of E-Selectin by flow cytometry; format: cell-based, Human; settings: 10 μM
Protocol: A) Materials. Human Umbilical Vein Endothelial Cells (HUVEC) sent from LifeBank, were tested in Experiments A-K with several adhesion molecules. The adhesion molecules tested were CD51/CD61FITC (obtained from BD PharMingen, San Diego, Calif.; Catalog No. 555505), ICAM-1 PE also known as CD54 (obtained from BD PharMingen, San Diego, Calif.; Catalog No. 555511), ICAM-2 also known as CD102 (obtained from Research Diagnostics Inc., Concord, Mass.; Catalog No. RDI-CBL539FT), VCAM-1 (obtained from BD PharMingen, San Diego, Calif.; Catalog No. 555647), P-Selectin FITC (obtained from R&D Systems, Inc., Minneapolis, Minn.; Catalog No. BBA34), E-Selectin FITC (obtained from R&D Systems, Inc., Minneapolis, Minn.; Catalog No. BBA21), HLA Class I FITC (obtained from BD PharMingen, San Diego, Calif.; Catalog No. 555553), HLA Class II PE (obtained from BD PharMingen, San Diego, Calif.; Catalog No. 555558), CD44 FITC (obtained from BD PharMingen, San Diego, Calif.; Catalog No. 347943), CD144 (Cadherin VE) (obtained from CHEMICON International, Inc., Temecula, Calif.; Catalog No. MAB1989), IgG2a FITC (obtained from BD PharMingen, San Diego, Calif.; Cat #556652), Ms IgG2a (obtained from CHEMICON International, Inc., Temecula, Calif.; Cat. No. PP102), IgG1 FITC (obtained from BD PharMingen, San Diego, Calif.; Cat. No. 349041) and IgG1 PE (obtained from BD PharMingen, San Diego, Calif.; Cat. No. 349043).
Compound (1) ((+)-2-[1-(3-ethoxy-4-methoxyphenyl)-2-methylsulfonylethyl]-4-acetylaminoisoindoline-1,3-dione) and Compound (2) (4-(amino)-2-(2,6-dioxo(3-piperidyl))-isoindoline-1,3-dione) were obtained according to the preparation procedures disclosed herein. 16,16-Dimethyl-PGE2 (hereinafter PGE2) was obtained from BIOMOL International, L.P. (Plymouth Meeting, Pa.; Catalog No. PG-021). TNF-αwas obtained from Pierce Biotechnology (Rockford, Ill.; Catalog No. RTNFA 10).
B) Methods. HUVEC's were plated on 6-well plates at a concentration of 1×10^5 cells/well in 3 ml EBM® endothelial basal media (obtained from Cambrex Corporation, East Rutherford, N.J.; Catalog No. CC-3121) and singlequots (obtained from Cambrex Corporation, East Rutherford, N.J.; Catalog No. CC-4133). The cells were incubated overnight in a 37° C. and 5% CO2 humidified incubator to allow cells to attach. The old media was removed in next day and replaced with 3 ml fresh EBM® endothelial basal media. Then, samples of 3 μl of 10 mM of Compound (1), Compound (2), PGE2 and a mixture of Compound (1) and PGE2 were added separately to each well of the plates in duplicate to give a final concentration of 10 μM. An unstimulated DMSO control and a TNF-α-stimulated control were also added in duplicate. The plates were incubated in a 37° C. and 5% CO2 humidified incubator for 1 hr. […] The plates were incubated overnight in a 37° C. and 5% CO2 humidified incubator. The cells were also tested without TNF-α. The media was removed in the next day and each well was washed with 3 ml of phosphate buffered saline (PBS). Then, 3 ml of PBS containing 1 mM of EDTA (ethylenediaminetetraacetate) was added to each well to allow the cells to detach. Once the cells detached, they were gently scraped and placed in 4.5 ml Falcon tubes. The tubes were then centrifuged at 1200 RPM for 8 minutes at 4° C. The supernatant was carefully removed. Next, 50 μl of PBS-FACS buffer (5% fetal bovine serum (FBS), 0.02% sodium azide in PBS) and 20 μl of antibodies were added to all tubes as follows:
After the antibodies were added, the tubes were incubated on ice for 30 minutes and covered with foil. Then, the tubes were centrifuged at 1200 RPM for 8 minutes at 4° C. The supernatant was carefully removed. The cells were re-suspended in 2 ml of PBS-FACS buffer and centrifuged again as above. The supernatant was carefully removed again and the cells were re-suspended in 500 μl of PBS-FACS buffer. The tubes were then analyzed using a flow cytometer. […]

## CCOc1cc(C(CS(C)(=O)=O)N2C(=O)c3cccc(NC(C)=O)c3C2=O)ccc1OC (single isomer, unassigned; (+)) [Compound (1), (+)-2-[1-(3-ethoxy-4-methoxyphenyl)-2-methylsulfonylethyl]-4-acetylaminoisoindoline-1,3-dione]
TNF-α; HEKn cells treated 4 hours at 0.1 μM or 1 μM, UVB, FIG. 9
  levels of TNF-α released after UVB exposure: dose dependent decrease
TNF-α; HEKn cells treated 4 hours at 0.1 μM, 1 μM, or 10 μM, 50 mJ/cm^2 UVB, 24 hours, FIG. 8
  levels of TNF-α released after UVB exposure: dose dependent decrease
TNF-α; HEKn cells treated 4 hours at 10 μM, 50 mJ/cm^2 UVB, 24 hours, FIG. 8
  TNF-α levels after UVB exposure with the 10 μM treatment: TNF-α levels similar to cells not treated with radiation
E-Selectin; TNF-α (1 ng/ml) stimulated, FIG. 3
  TNF-α-stimulated cell surface expression of E-Selectin: unaffected
E-Selectin; unstimulated, FIG. 2
  E-Selectin cell surface expression: inhibited
